Here are results for four compounds from US9676778B2, “Substituted pyrrolo[2,3-b]pyrazines as JAK3 inhibitors” (PRINCIPIA BIOPHARMA INC., priority 2012, dated 2017).

pIC50: −log10 of the molar value.

For assay [1], the system named is delayed-type hypersensitivity response. Particulars: Kudlacz 2004; cited from earlier work.
In assay [2] the test system is collagen-induced arthritis. The settings on record: Milici 2008; cited from earlier work.
The test system of assay [3] is mixed lymphocyte reaction. The settings on record: Kudlacz 2004; cited from earlier work.
The subject of a further assay is psoriasis. Particulars: short-term study, Boy 2009; cited from earlier work.
In a further assay the target is T1, JAK3 (Homo sapiens, UniProt P52333).
T1 construct: purchased Invitrogen PV3855
Nature of the assay: Determination of Drug-Kinase Residence Time for JAK3 (TR-FRET tracer competition). Particulars: 1.5 uM compound, 500 nM JAK3, from 1 hour through 6 hours. In kind it is binding. Here is the method: The read-out for slow dissociation is the ability of the compound of interest to block binding of a high affinity fluorescent tracer molecule to the kinase active site, as detected using time-resolved fluorescence resonance energy transfer (TR-FRET). The experiment was conducted in a buffer consisting of 50 mM Hepes pH 7.5, 10 mM MgCl2, 0.01% Triton X-100, and 1 mM EGTA.
The first step of the procedure was incubation of 500 nM JAK3 (Invitrogen Cat. #PV3855) with 1.5 uM of a compound disclosed in Table 1 for 30 minutes in a volume of 10 uL. The mixture was then diluted 5-fold by mixture of 10 uL JAK3/cmpd with 40 uL buffer. A 10 uL volume of the diluted kinase/compound solution was then added to a well of a small volume 384 well plate (such as Greiner Cat. #784076). In order to probe for reversibility of the kinase-compound binding interaction, a competition solution containing both a high affinity fluorescent tracer and an antibody coupled to Europium was prepared. For JAK3, the competition solution contained 8 uM Tracer 236 (Invitrogen Cat. #PV5592), which is a proprietary high affinity ligand for JAK3 coupled to the fluorophore AlexaFluor 647. The competition solution also contained 80 nM of an Anti-GST antibody coupled to Europium which is designed to bind the GST purification tag in JAK3.
After addition of 10 uL of the competition solution to the Greiner plate, the mixture was incubated for one hour or greater to allow time for dissociation of non-covalent inhibitors and binding of the high affinity tracer. It was expected that covalent and slow dissociating inhibitors will block binding of the tracer while rapidly dissociating non-covalent inhibitors will not. Binding of the tracer to JAK3 was detected using TR-FRET between the Europium moiety of the Anti-GST antibody and the AlexaFluor 647 group of Tracer 236. Binding was evaluated using a Perkin Elmer Envision instrument (Model 2101) equipped with filters and mirrors compatible with LANCE-type TR-FRET experiments. Data were plotted at percentage of signal obtained in the absence of competitor compound. […]
In general terms: In TR-FRET formats the signal depends on donor and acceptor labels being close together.

Another assay concerns the target T2, JAK3 protein (Homo sapiens, UniProt P52333).
T2 sequence (P52333 1-1124): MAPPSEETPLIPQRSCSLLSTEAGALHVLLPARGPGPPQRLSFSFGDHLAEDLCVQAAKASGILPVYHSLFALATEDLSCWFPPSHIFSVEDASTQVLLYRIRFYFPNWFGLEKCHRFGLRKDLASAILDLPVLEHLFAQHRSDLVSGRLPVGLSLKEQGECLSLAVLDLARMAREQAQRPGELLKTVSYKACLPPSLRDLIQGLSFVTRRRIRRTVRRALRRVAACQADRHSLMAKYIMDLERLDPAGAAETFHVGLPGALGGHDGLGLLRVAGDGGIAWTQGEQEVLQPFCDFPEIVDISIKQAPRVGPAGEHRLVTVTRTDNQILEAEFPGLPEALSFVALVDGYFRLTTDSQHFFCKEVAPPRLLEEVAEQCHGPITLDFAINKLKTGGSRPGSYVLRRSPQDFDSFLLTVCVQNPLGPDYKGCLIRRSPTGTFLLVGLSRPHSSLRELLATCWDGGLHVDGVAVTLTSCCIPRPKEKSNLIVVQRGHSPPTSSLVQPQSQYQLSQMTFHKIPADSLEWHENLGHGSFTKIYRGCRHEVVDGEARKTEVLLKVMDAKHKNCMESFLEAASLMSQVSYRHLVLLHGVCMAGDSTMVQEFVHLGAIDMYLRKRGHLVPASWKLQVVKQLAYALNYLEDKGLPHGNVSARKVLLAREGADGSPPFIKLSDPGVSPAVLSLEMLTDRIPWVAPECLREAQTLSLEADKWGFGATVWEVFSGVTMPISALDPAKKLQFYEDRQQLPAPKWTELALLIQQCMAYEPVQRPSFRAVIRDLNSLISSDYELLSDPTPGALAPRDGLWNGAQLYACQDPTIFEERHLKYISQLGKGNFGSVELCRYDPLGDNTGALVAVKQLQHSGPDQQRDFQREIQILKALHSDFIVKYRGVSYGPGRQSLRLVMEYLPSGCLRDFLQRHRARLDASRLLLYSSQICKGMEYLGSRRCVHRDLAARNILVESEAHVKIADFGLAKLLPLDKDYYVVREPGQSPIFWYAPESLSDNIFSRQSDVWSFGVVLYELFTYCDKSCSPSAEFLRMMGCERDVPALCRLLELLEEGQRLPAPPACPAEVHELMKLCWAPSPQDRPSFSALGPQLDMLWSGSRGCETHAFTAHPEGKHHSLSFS
Nature of the assay: Reversibility of Binding (trypsin digestion, HPLC-MS/MS). Here is the method:
The following approach was developed to differentiate compounds that form irreversible bonds with their targets, such as acrylamide compounds, from compound that bind reversibly. Reactions were prepared with the JAK3 protein target at a higher concentration than the compound of interest. The reactions were then digested with trypsin, disrupting proper folding of the target. […] The concentration of compound in solution was assessed both preceding and following perturbation using high performance liquid chromatography (HPLC) coupled to tandem mass spectrometry.

The test system of another assay is MJ. Nature of the assay: Tumor Cell Proliferation Assay. In kind it is cell-based. The settings on record: CTCL (Unknown), 72 hr. Here is the method: (§1) Cells (SZ-4 CTCL cells) were plated at a density of 5000 cells/well (384 well plates). Cells were plated in DMEM culture media supplemented with 0.5% fetal bovine serum. Other tumor cells (e.g. NK-TCL, T-ALL) were plated at densities of 2000-10,000 cells/well in culture media (e.g. DMEM, RPMI), containing 1%-20% FBS, dependent on the growth requirements of the individual tumor cell line. Compounds were diluted in culture media using serial dilution yielding final concentrations with 0 (DMSO control) or concentrations ranging from 0.5 nM to 10 uM. For the CTCL cells, after 1 hr incubation, at 37° C. in 95% air, 5% CO2, cells were induced with 100 ng/ml IL-2 for 72 hr. For the other cell types, cells were incubated without further induction for 72 hr. Cell Titer-Glo reagent was then added to the cells, contents mixed for 2 min, incubated at room temperature for 10 min, then luminescence was determined using a microplate luminometer. The percent inhibition was calculated based on a DMSO control for no inhibition and plotted as a function of test compound concentration from which an IC50 value was calculated.

A further assay has as its system SZ-4 CTCL cells. The assay is described as follows: Tumor Cell Proliferation Assay. Particulars: SZ-4, CTCL (Sézary syndrome); 100 ng/ml IL-2, 72 hr, Cell Titer-Glo. In kind it is cell-based. How it is done: as §1
In general terms: Cellular ATP, detected with luciferase, serves as a proxy for viable cell number.

A further assay deals with SNK6. Nature of the assay: Tumor Cell Proliferation Assay. In kind it is cell-based. The settings on record: SNK6, NK-TCL; 72 hr. Here is the method: as §1
For a further assay, the system named is HH. Nature of the assay: Tumor Cell Proliferation Assay. The settings on record: Homo sapiens, CTCL (non MF, non Sézary syndrome), 72 hr. In kind it is cell-based. Here is the method:
as §1

The test system of a further assay is H9. The assay is described as follows: Tumor Cell Proliferation Assay. In kind it is cell-based. Particulars: Homo sapiens; H9, CTCL (Sézary syndrome); 72 hr. Here is the method:
as §1

The test system of the next assay is H78. Nature of the assay: Tumor Cell Proliferation Assay. The assay is classed as cell-based. The settings on record: H78, CTCL (Sézary syndrome); 72 hr. Here is the method:
as §1

A further assay concerns Hut-102. The assay is described as follows: Tumor Cell Proliferation Assay. In kind it is cell-based. Particulars: Hut-102, CTCL (Mycosis fungoides); 72 hr. Here is the method: as §1
For a further assay, the system named is KHG1. The assay is described as follows: Tumor Cell Proliferation Assay. The assay is classed as cell-based. Particulars: KHG1, NK-TCL; 72 hr. Here is the method: as §1
The next assay deals with SNK1. The assay is described as follows: Tumor Cell Proliferation Assay. In kind it is cell-based. The settings on record: SNK1, NK-TCL; 72 hr. Here is the method: as §1
For a further assay, the system named is NKS1. Nature of the assay: Tumor Cell Proliferation Assay. In kind it is cell-based. The settings on record: NKS1, NK-TCL; 72 hr. How it is done:
as §1

For a further assay, the system named is HANK1. Nature of the assay: Tumor Cell Proliferation Assay. The assay is classed as cell-based. The settings on record: HANK1, NK-TCL; 72 hr. How it is done: as §1

For orientation: pIC50 means the negative decadic logarithm of the IC50, by convention in mol/L. High values mean a low IC50, low ones a high IC50.

Take `C[C@@H]1CCN(C(=O)CC#N)C[C@@H]1N(C)c1ncnc2[nH]ccc12` [CP-690,550]: the “effect on delayed-type hypersensitivity response (DTH)” value in assay [1] is on record as “blocks”. The “effect in collagen-induced arthritis model” value in assay [2] is on record as “blocks”. In addition, the “effect on mixed lymphocyte reaction (MLR)” value in assay [3] was “blocks”. Further, the “efficacy in psoriasis patients” value with psoriasis is given as “demonstrated efficacy”.

`C=CC(=O)Nc1cccc(-c2cnc3[nH]cc(C(=O)C(C)(C)C)c3n2)c1` [Compound 1, N-(3-(7-pivaloyl-5H-pyrrolo[2,3-b]pyrazin-2-yl)phenyl)acrylamide]: on JAK3, the “binding of Tracer 236 after pre-incubation with compound” value (“binding” below) is on record as “no increase”. In addition, on JAK3 protein (JAK3 at higher concentration than compound), the “Compound in solution in the native state?” value is “no”. Besides, the “Compound in solution in the denatured or digested state?” value at JAK3 protein (after digestion with trypsin) was “no”.

`C=CC(=O)Nc1cccc(-c2cnc3[nH]cc(C(=O)NC(C)(C)C)c3n2)c1` [Compound 2, 2-(3-acrylamidophenyl)-N-(tert-butyl)-5H-pyrrolo[2,3-b]pyrazine-7-carboxamide]: at JAK3, the “binding” value is listed as “no increase”. Besides, the pIC50 in the assay on MJ was below 5.30; in the assay with SZ-4 CTCL cells it was 7.25; in the assay with SNK6 it was 5.07; with HH, 5.57; in the assay on H9, 6.35; in the assay with H78, 6.82. The pIC50 is 6.98 in the assay with Hut-102; 6.30 in the assay with KHG1; 6.13 in the assay with SNK1; 6.96 in the assay with NKS1; 5.73 in the assay with HANK1.

With `CN(C)CC=CC(=O)Nc1cccc(-c2cnc3[nH]cc(C(=O)NC(C)(C)C)c3n2)c1` [Compound 3, N-(tert-butyl)-2-(3-(4-(dimethylamino)but-2-enamido)phenyl)-5H-pyrrolo[2,3-b]pyrazine-7-carboxamide], the “binding” value at JAK3 was “no increase”.
